The text below walks through data of PubChem BioAssay (NCI).

Each structure is given as a SMILES string.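 Each compound was tested at five concentrations against cells in 96-well plates for 48 hours. TGI marks complete inhibition of growth.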

Assay in all cases: NCI tumour cell line growth inhibition, 48 h
The subject of test [1] is DLD-1 colon.
Test [2] has as its system DMS 114 small cell lung.
The subject of test [3] is HOP-18 NSCLC.
The test system of test [4] is P388 leukemia.
Test [5] relates to P388/ADR leukemia.
Test [6] deals with SN12K1 renal.
For test [7], the system named is SNB-78 CNS.
Test [8] deals with LXFL 529 NSCLC.
Test [9] concerns RXF-631 renal.

On to `COC(=O)C(C/C=C(\C)c1ccc(Cl)cc1)C(C)=O` (stereo not given), for which the TGI was more than 100 µM in test [1]; more than 73.8 µM in test [2]; more than 100 µM in test [3]; 46 µM in test [4]; more than 76.5 µM in [5]; more than 61.7 µM in test [6]. This compound also showed a TGI in test [7] of more than 100 µM.
On to `Cc1c2ccncc2c(C)c2c1[nH]c1ccc(OCC(F)(F)F)cc12`, for which the TGI is 3.32 µM in [1], 2.43 µM in test [8] and 5.47 µM in test [7].
For the compound `COC1(O)c2cccc(Cl)c2C(=O)N1C1(C(N)=O)CCCCC1` (stereo not given), the TGI in test [1], in test [2], in test [3], in test [4], in [5] and in [6] was more than 100 µM throughout. Further, the TGI in [7] was more than 100 µM.
As for `CSc1nc2c(ncn2C2OCC(O)C(O)C2O)c(=O)n1C` (stereo not given), the TGI in test [1], in [2], in test [3], in [4], in [5] and in test [6] was more than 100 µM in each case. Further, the TGI in test [7] was more than 100 µM.
As to `NN1C(=O)C(CCO)S/C1=N/N=C1/SC(CCO)C(=O)N1N` (stereo not given), the TGI in test [1], in test [2], in [3], in test [8] and in test [7] was more than 100 µM each time.
Consider `COc1cc(C2C(Cl)C(=O)N2NC(=O)c2ccc(N)cc2)cc(Br)c1O` (stereo not given), for which the TGI in test [1] worked out at 40.2 µM; in test [2] it was 21.8 µM; in test [8], 11.3 µM; in test [7] it was 43.9 µM.
As to `CCN(CC)CCNc1ccc2nnn3c4ccc(O)cc4c(=O)c1c23`, the TGI in [1] was 17.5 µM; in test [2] it was 22.1 µM; in test [3], 42.7 µM; in [8], 20.3 µM; in test [7] it was 21.1 µM.
With `COc1ccc(C(=O)C(c2ccc(OCc3ccccc3)cc2)c2ccc(OCc3ccccc3)cc2)cc1`, the TGI in [1], in test [2], in [9] and in test [7] was more than 100 µM each time.
Regarding `OCCN1CCN2C=C(C3CCCC4N(CCO)CCN34)CCC21` (stereo not given), the TGI in test [1] was more than 100 µM; in test [2], 72.5 µM; in test [3], more than 100 µM; in test [8], more than 100 µM; in test [7] it was more than 100 µM.
For the compound `Clc1ccc(-c2c(C3=NCCCN3)nnn2-c2ccccc2)cc1`, the TGI in test [1], in [2], in test [3], in test [8], in test [9] and in [7] was more than 100 µM throughout.
For the compound `CN1CCN(c2ccc3nc(-c4ccc5nc(-c6ccc(O)cc6)[nH]c5c4)[nH]c3c2)CC1`, the TGI came out at 487 µM in test [1]; 483 µM in test [2]; 556 µM in [3]; 439 µM in test [4]; 725 µM in [5]; 552 µM in test [6]. In test [7], this compound yielded a TGI of 638 µM.
On to `O=C(Nc1cccc2c1[nH]c1c(-c3ccccc3)nccc12)c1ccccc1[N+](=O)[O-]`, for which the TGI in test [3], in test [8], in test [9] and in test [7] was more than 100 µM each time.
In the case of `Ic1cc2c(cc1C1SCCCS1)OCO2`, the TGI in [1], in test [2], in test [3], in [8], in test [9] and in test [7] was more than 100 µM throughout.
Take `C=C[C@]1(C)CCC2=C(CCC3C2(C)CCC[C@@]3(C)COC(C)=O)C1` (stereo not given in full): the TGI stood at 34.7 µM in test [1]; 37.4 µM in [2]; 70.1 µM in test [3]; 32.5 µM in [8]; 38.1 µM in test [9]; 36.4 µM in [7].
As to `O=C(O)C12CCCCC1CCCC2` (stereo not given), the TGI in test [1], in test [2], in [3] and in test [8] was more than 100 µM each time.
Consider `CCCCCC/C=C1\CCC(CN2CCOCC2)C1=O` (stereo not given), for which the TGI turned out to be 27.4 µM in test [1]; 33.2 µM in [2]; 20 µM in [3]; 11.1 µM in [8]; 50.6 µM in [7].
With `CCN(CC)Cc1c(/C=C\c2cc(OC)c(OC)c(OC)c2)ccc(OC)c1O`, the TGI was more than 100 µM in test [1]; 5.68 µM in test [2]; more than 100 µM in test [3]; more than 100 µM in [8]; more than 100 µM in test [7].
